The text below walks through data of article PMC5401710, “Peptides with 6-Aminohexanoic Acid: Synthesis and Evaluation as Plasmin Inhibitors” (International Journal of Peptide Research and Therapeutics, 2016).

Read-outs that look alike come from different tables or passages of the source. Non-standard residues stand in square brackets, D forms with d. Residues, ends and D or L forms follow the SMILES beside them. Ahx = NCCCCCC(=O)O

Assay [1] has as its target T1, tPA (Homo sapiens, UniProt P00750).
T1 construct: purchased Boehringer Ingelheim GmbH (Ingelheim, Germany)
Nature of the assay: Amidolytic activity of t-PA (substrate S-2288). It is filed as biochemical. Particulars: amidolytic activity, S-2288, tris buffer pH 8.4. Here is the method:
(§1) Determination of amidolytic activity was performed as previously described by (Okada et al. [1988]). Buffer and 0.1 ml of enzyme solution was added to 0.2 ml of examined compound dissolved in 0.15 M NaCl (1–15) (as control 0.15 M NaCl). The buffer and the enzyme solution included: • tris buffer—0.6 ml (pH 8.8), enzyme: urokinase (50 units/ml), synthetic substrate: S-2444 (0.1 ml, 3 mM); • tris buffer—0.5 ml (pH 8.4), enzyme: thrombin (1 units/ml), synthetic substrate: S-2238 (0.2 ml, 0.75 mM); • tris buffer—0.5 ml (pH 7.4), enzyme: plasmin (0.4 units/ml), synthetic substrate: S-2251 (0.2 ml, 3 mM); • […]—0.5 ml (pH 7.5), enzyme: trypsin (0.4 units/ml), synthetic substrate: Bzl-L-Arg–pNA.HCl (0.2 ml, 8 mM); • tris buffer—0.6 ml (pH 9.0), enzyme: kallikrein (3 units/ml), synthetic substrate: S-2266 (0.1 ml, 75 mM); • tris buffer—0.6 ml (pH 8.4), enzyme: t-PA ([…]), synthetic substrate: S-2288 (0.1 ml, 10 mM).
(§2) IC50 values were determined (IC50, Inhibitor Concentration, the concentration at which enzyme activity is inhibited by 50 %). Our results were compared with the 6-aminohexanoic acid.

The target of assay [2] is T2, thrombin (Bos taurus, UniProt P00735).
T2 construct: purchased Lubelska Wytwórnia Szczepionek (Lublin, Poland)
Nature of the assay: Amidolytic activity of thrombin (substrate S-2238). It is filed as biochemical. Particulars: amidolytic activity, S-2238, tris buffer pH 8.4. As for the experimental part: as §1, §2

Assay [3] addresses T3, uPA (Homo sapiens, UniProt P00749).
T3 construct: purchased Sigma (Schnelldorf, Germany)
Nature of the assay: Amidolytic activity of urokinase (substrate S-2444). It is filed as biochemical. Particulars: amidolytic activity, S-2444, tris buffer pH 8.8. As for the experimental part: as §1, §2

Assay [4] addresses T4, plasmin (Homo sapiens, UniProt P00747).
T4 construct: The amino-terminal heavy chain of PL consists of five kringle domains; The C-terminal light chain of plasmin is a typical serine protease (SP); purchased Chromogenix (Milano, Italy)
The assay can be described thus: Amidolytic activity of plasmin (substrate S-2251). It is filed as biochemical. The settings on record: amidolytic activity, S-2251, tris buffer pH 7.4. Here is the method:
as §1, §2

Assay [5] has as its target T4, plasmin. The settings on record: cited from earlier work; for inhibitory effect on plasmin activity: ref Midura-Nowaczek et al. [2003].
For assay [6], the system named is trypsin. The assay can be described thus: Amidolytic activity of trypsin (substrate Bzl-L-Arg-pNA). It is filed as biochemical. Particulars: amidolytic activity, Bzl-L-Arg-pNA, borane buffer pH 7.5. As for the experimental part: as §1, §2
Assay [7] concerns fibrinolysis in whole blood. The assay can be described thus: Thromboelastometric (ROTEM) analysis of clot formation and fibrinolysis in whole blood. Also on record: species or system human. The settings on record: for clotting time (CT, coagulation time) / lysis of the clot in 45 min (from LI45): human whole blood; for clotting time (CT, coagulation time): control 174 s; for lysis of the clot in 45 min (from LI45): whole blood alone about 61 %; for LOT lysis onset time (clot amplitude reduced by 15 %) / LT lysis time (clot reduced/lysed by 90 %) / LI30 lysis index, amplitude of clot after 30 min / LI45 lysis index, amplitude of clot after 45 min / LI60 lysis index, amplitude of clot after 60 min: recalcified human whole blood; for LOT lysis onset time (clot amplitude reduced by 15 %) / LT lysis time (clot reduced/lysed by 90 %): 140 ng/ml TF, 125 ng/ml tPA; for LI30 lysis index, amplitude of clot after 30 min / LI45 lysis index, amplitude of clot after 45 min / LI60 lysis index, amplitude of clot after 60 min: TF + tPA. Here is the method:
Five healthy volunteers, men (age range: 25–34 years)) with normal blood cell counts were entered into the study. Healthy volunteers had not taken medication known to affect platelet function and/or coagulation for at least 10 days before blood sampling.
Blood was stored at room temperature for 30 min after venipuncture and then was evaluated by thromboelastometric analyses.
Thromboelastometric measurements were performed using ROTEM system (Tem International GmbH, Manheim, Germany). […] We measured the parameters characterized kinetic of clot formation (clotting time, alpha angle), clot strength (maximal clot firmness; MCF), and fibrinolysis (percentage reduction of MCF, clot lysis time).

[8] abbreviates: ref Midura-Nowaczek et al. [1990].
The mark [9] stands for this setting: listed as H–Ala–Phe–Lys–EACA–NH2.

T4 sequence (P00747 97-580 limits assumed): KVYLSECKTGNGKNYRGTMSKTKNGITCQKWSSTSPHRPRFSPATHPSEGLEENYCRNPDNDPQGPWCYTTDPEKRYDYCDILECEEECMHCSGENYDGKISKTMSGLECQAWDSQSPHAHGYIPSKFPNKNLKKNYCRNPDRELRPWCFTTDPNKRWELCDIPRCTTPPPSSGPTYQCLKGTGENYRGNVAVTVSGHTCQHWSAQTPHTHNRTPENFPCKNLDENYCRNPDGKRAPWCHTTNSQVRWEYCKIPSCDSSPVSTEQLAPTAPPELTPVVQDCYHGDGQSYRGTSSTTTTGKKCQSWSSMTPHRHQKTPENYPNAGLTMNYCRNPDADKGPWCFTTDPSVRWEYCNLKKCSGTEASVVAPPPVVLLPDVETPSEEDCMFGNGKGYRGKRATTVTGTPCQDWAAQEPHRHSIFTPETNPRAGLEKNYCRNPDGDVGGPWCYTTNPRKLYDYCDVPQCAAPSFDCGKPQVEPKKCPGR
T4 sequence (P00747 581-810 limits assumed): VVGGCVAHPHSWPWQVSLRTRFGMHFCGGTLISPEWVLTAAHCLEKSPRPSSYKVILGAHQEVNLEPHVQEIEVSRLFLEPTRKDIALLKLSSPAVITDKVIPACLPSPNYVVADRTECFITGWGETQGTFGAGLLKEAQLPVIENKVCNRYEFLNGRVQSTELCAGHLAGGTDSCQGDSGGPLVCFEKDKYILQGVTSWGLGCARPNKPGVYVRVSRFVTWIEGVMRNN
T1 sequence (P00750 36-562): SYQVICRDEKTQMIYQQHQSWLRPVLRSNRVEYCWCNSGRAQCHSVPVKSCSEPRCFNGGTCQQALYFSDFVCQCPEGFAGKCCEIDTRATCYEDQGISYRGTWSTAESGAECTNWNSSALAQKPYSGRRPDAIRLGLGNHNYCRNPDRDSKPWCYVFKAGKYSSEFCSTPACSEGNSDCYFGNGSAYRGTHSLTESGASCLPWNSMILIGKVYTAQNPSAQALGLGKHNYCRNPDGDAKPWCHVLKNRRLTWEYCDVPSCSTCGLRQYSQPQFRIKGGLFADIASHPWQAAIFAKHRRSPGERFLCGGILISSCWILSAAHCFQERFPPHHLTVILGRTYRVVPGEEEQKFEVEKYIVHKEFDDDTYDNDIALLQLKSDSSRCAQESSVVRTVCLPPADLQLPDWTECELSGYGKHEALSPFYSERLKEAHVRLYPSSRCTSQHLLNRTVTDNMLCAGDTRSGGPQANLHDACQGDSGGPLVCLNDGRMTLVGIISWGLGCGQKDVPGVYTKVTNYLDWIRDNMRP

One may read the IC50 as the concentration that inhibits the measured activity by half. Turning to `C[C@@H](N)C(=O)N[C@@H](Cc1ccccc1)C(=O)N[C@@H](CCCCN)C(=O)NCCCCCC(=O)O` [Compound 2, H–D-Ala–Phe–Lys–EACA–OH] (H-[dA]FK[Ahx]-OH), the half-inhibitory concentration (IC50) is 14.4 ± 1.15 mM in assay [1], 3.85 ± 0.31 mM in assay [2], over 20 mM in assay [3] and 3.37 ± 0.27 mM in assay [4].

Turning to H–Ala–Phe–Lys–NH–(CH2)5–NH2, the plasmin inhibitory activity result in assay [5] (setting [8]) is listed as “no plasmin inhibitory activity”.

As for `NCCCC[C@H](NC(=O)[C@@H](N)Cc1ccccc1)C(=O)NCCCCCC(N)=O` [Compound 6, H–Phe–Lys–EACA–NH2] (H-Phe-Lys-[Ahx]-NH2), the IC50 in assay [1] was over 20 mM; in assay [2], over 20 mM; in assay [6], over 20 mM; in assay [3] it was over 20 mM; in assay [4], 1.43 ± 0.11 mM.

On to `NCCCCCNC(=O)CCCCCNC(=O)[C@H](CCCCN)NC(=O)[C@@H](N)Cc1ccccc1` [Compound 11, H–Phe–Lys–EACA–NH–(CH2)5–NH2], for which the IC50 is over 20 mM in assay [1], over 20 mM in assay [2], over 20 mM in assay [3] and 4.82 ± 0.39 mM in assay [4].

In the case of `C[C@H](N)C(=O)N[C@@H](Cc1ccccc1)C(=O)NCCCCCC(N)=O` [Compound 10, H–Ala–Phe–EACA–NH2] (H-Ala-Phe-[Ahx]-NH2), the 50% inhibitory concentration (IC50) in assay [1] was over 20 mM; in assay [2], over 20 mM; in assay [3], 2.61 ± 0.21 mM; in assay [4], over 20 mM.

`NCCCC[C@H](NC(=O)[C@@H](N)Cc1ccccc1)C(=O)NCCCCCC(=O)O` [Compound 1, H–Phe–Lys–EACA–OH] (H-Phe-Lys-[Ahx]-OH): the IC50 in assay [1] was over 20 mM; in assay [2] it was over 20 mM; in assay [3] it was over 20 mM; in assay [4], 11.4 ± 0.91 mM.

Take `C[C@H](N)C(=O)N[C@@H](Cc1ccccc1)C(=O)N[C@@H](CCCCN)C(=O)NCCCCCC(=O)O` [Compound 3, H–Ala–Phe–Lys–EACA–OH] (H-AFK[Ahx]-OH): the IC50 in assay [1] was 17.6 ± 1.41 mM; in assay [2] it was 5.04 ± 0.4 mM; in assay [3], over 20 mM; in assay [4] it was 4.82 ± 0.39 mM.

With `C[C@H](N)C(=O)N[C@@H](Cc1ccccc1)C(=O)NCCCCCC(=O)NCCCCCN` [Compound 15, H–Ala–Phe–EACA–NH–(CH2)5–NH2], the IC50 in assay [1], in assay [2], in assay [3] and in assay [4] was over 20 mM throughout.

`C[C@H](N)C(=O)N[C@@H](Cc1ccccc1)C(=O)N[C@@H](CCCCN)C(=O)NCCCCCC(N)=O` [Compound 8, H–Ala–Phe–Lys–EACA–NH2] (H-AFK[Ahx]-NH2) displayed an IC50 in assay [1] of over 20 mM. Besides, in assay [7], the “clotting time (CT, coagulation time)” value is on record as 135 s; the “lysis of the clot in 45 min (from LI45)” value amounted to 14%; the “LOT lysis onset time (clot amplitude reduced by 15 %)” value is 2731 s; the “LT lysis time (clot reduced/lysed by 90 %)” value is reported as “about 67 min”. Moreover, in assay [7], the “LI30 lysis index, amplitude of clot after 30 min” value (shortened to “LI30 lysis index, amplitude”) was 99%; the “LI45 lysis index, amplitude of clot after 45 min” value (shortened to “LI45 lysis index, amplitude”) was found to be 86%; the “LI60 lysis index, amplitude of clot after 60 min” value (shortened to “LI60 lysis index, amplitude”) is on record as 43%. In assay [7] (setting [9]), the “LOT lysis onset time (clot amplitude reduced by 15 %)” value was determined as 2731 ± 160 s and the “LT lysis time (clot reduced/lysed by 90 %)” value is recorded as 76 ± 6 min. This compound came in with an IC50 in assay [2] of 7.59 ± 0.61 mM. Further, the IC50 in assay [6] is over 20 mM. In assay [3], this compound showed an IC50 of over 20 mM. Also, the IC50 in assay [4] was 0.13 ± 0.01 mM.

On to `C[C@H](N)C(=O)N[C@@H](Cc1ccccc1)C(=O)N[C@@H](CCCCN)C(=O)NCCCCCC(=O)NCCCCCN` [Compound 13, H–Ala–Phe–Lys–EACA–NH–(CH2)5–NH2], for which the IC50 in assay [1] was over 20 mM; in assay [2], over 20 mM; in assay [3] it was over 20 mM; in assay [4], 1.4 ± 0.11 mM.

For the compound `C[C@@H](N)C(=O)N[C@@H](Cc1ccccc1)C(=O)N[C@@H](CCCCN)C(=O)NCCCCCC(=O)NCCCCCN` [Compound 12, H–D-Ala–Phe–Lys–EACA–NH–(CH2)5–NH2], the IC50 in assay [1] is over 20 mM; in assay [2], over 20 mM; in assay [6], over 20 mM; in assay [3], over 20 mM; in assay [4] it was 1.11 ± 0.09 mM.

As for H-[dA]-Phe-Lys-NH2, the plasmin inhibitory activity result in assay [5] (ref Markowska et al. ([2007])) is given as “no activity”. Also, in assay [5], the “inhibitory effect on plasmin activity” value was “completely lacked this effect”.

As for `C[C@@H](N)C(=O)N[C@@H](Cc1ccccc1)C(=O)NCCCCCC(N)=O` [Compound 9, H–D-Ala–Phe–EACA–NH2] (H-[dA]-Phe-[Ahx]-NH2), the IC50 is over 20 mM in assay [1], over 20 mM in assay [2], over 20 mM in assay [3] and 1.55 ± 0.12 mM in assay [4].

As to `C[C@H](N)C(=O)N[C@@H](Cc1ccccc1)C(=O)NCCCCCC(=O)O` [Compound 5, H–Ala–Phe–EACA–OH] (H-Ala-Phe-[Ahx]-OH), the IC50 was over 20 mM in assay [1], 4.77 ± 0.38 mM in assay [2], 3.38 ± 0.27 mM in assay [3] and over 20 mM in assay [4].

`C[C@@H](N)C(=O)N[C@@H](Cc1ccccc1)C(=O)NCCCCCC(=O)O` [Compound 4, H–D-Ala–Phe–EACA–OH] (H-[dA]-Phe-[Ahx]-OH): the 50% inhibitory concentration (IC50) in assay [1] was 6.48 ± 0.52 mM; in assay [2], over 20 mM; in assay [3] it was 3.17 ± 0.25 mM; in assay [4], 10.9 ± 0.87 mM.

Turning to `C[C@@H](N)C(=O)N[C@@H](Cc1ccccc1)C(=O)NCCCCCC(=O)NCCCCCN` [Compound 14, H–D-Ala–Phe–EACA–NH–(CH2)5–NH2], the half-inhibitory concentration (IC50) in assay [1] is over 20 mM; in assay [2], over 20 mM; in assay [3], over 20 mM; in assay [4], 4.77 ± 0.38 mM.

Regarding `NCCCCCC(N)=O` [H–EACA–NH2, reference compound], in assay [7], the “clotting time (CT, coagulation time)” value was 117 s; the “lysis of the clot in 45 min (from LI45)” value is listed as 20%; the “LOT lysis onset time (clot amplitude reduced by 15 %)” value is on record as 2488 ± 172 s; the “LT lysis time (clot reduced/lysed by 90 %)” value is 71 ± 5 min. In assay [7], the “LI30 lysis index, amplitude” value worked out at 96%; the “LI45 lysis index, amplitude” value is given as 80%; the “LI60 lysis index, amplitude” value amounted to 32%.

For the compound `CC(=O)N[C@@H](CCCCN)C(=O)NCCCCCN` [Ac–Lys–NH–(CH2)5–NH2], the IC50 in assay [5] (ref Midura-Nowaczek et al. [2008]) was 8 mM.

Turning to H–Ala–Phe–Lys–NH2, the “inhibitory effect on plasmin activity” value in assay [5] is on record as “completely lacked this effect”.

On to `C[C@@H](N)C(=O)N[C@@H](Cc1ccccc1)C(=O)N[C@@H](CCCCN)C(=O)NCCCCCC(N)=O` [Compound 7, H–D-Ala–Phe–Lys–EACA–NH2] (H-[dA]FK[Ahx]-NH2), for which, in assay [1], the IC50 is over 20 mM. In assay [7], the “clotting time (CT, coagulation time)” value is 115 s; the “lysis of the clot in 45 min (from LI45)” value is 21%; the “LOT lysis onset time (clot amplitude reduced by 15 %)” value amounted to 2519 ± 176 s; the “LT lysis time (clot reduced/lysed by 90 %)” value was 72 ± 4 min. Further, in assay [7], the “LI30 lysis index, amplitude” value came to 97%; the “LI45 lysis index, amplitude” value amounted to 79%; the “LI60 lysis index, amplitude” value turned out to be 28%. In assay [2], this compound had a half-inhibitory concentration (IC50) of over 20 mM. This compound also had an IC50 in assay [6] of over 20 mM. Further, in assay [3], the IC50 is over 20 mM. The IC50 in assay [4] turned out to be 0.02 ± 0.0016 mM.

For H–D-Ala–Phe–Lys–NH–(CH2)5–NH2, the plasmin inhibitory activity result in assay [5] (setting [8]) is “no activity”.
